Experimental data published in patent US20030097221A1, “Detection and characterization of psychoactives using parallel multi-site assays in brain tissue” (priority 2001, published 2003).
Several values for one entry are separate records, joined by “and”; a condition that tells them apart may be missing. Equal values may be shown once.

Columns and labels:
Type in all cases: cell-based, rat
[1] = tested on: glutamate receptor-mediated evoked excitatory synaptic transmission, hippocampal slice CA1; experiment: Paired-pulse evoked fEPSP in CA1, Schaffer collateral stimulation (assays SC50, SC200), MED64 multi-electrode array; parameters: key to SC 50 ms Amplitude fEPSP 1st, Mean / SC 50 ms Amplitude fEPSP 2nd, Mean / SC 200 ms Widths fEPSP 1st, Mean / SC 200 ms Widths fEPSP 2nd, Mean: fractional change vs. last 5 min of pre-wash-in control phase
Procedure: (§1) A 17-24 day old Sprague Dawley rat was decapitated after anesthesia with halothane (2-bromo-2-chloro-1,1,1-trifluoroethane; Sigma; B4388), and the whole brain was removed. The brain was immediately soaked for ˜2 min in ice-cold, oxygenated preparation buffer of the following composition (in mM): 124 NaCl, 26 NaHCO3, 10 glucose, 3 KCl, 1.25 NaH2PO4, 2 CaCl2, and 2 MgSO4. Appropriate portions of the brain were trimmed and placed on the ice-cold stage of a vibrating tissue slicer (Leica, Nussloch, Germany; VT-1000S). The stage was immediately filled with both oxygenated and frozen preparation buffers. The thickness of each tissue slice was 350 μm. Each slice was gently taken off the blade, and immediately soaked in the oxygenated artificial cerebrospinal fluid (ACSF) for at least 1 hr at room temperature. Then a slice was placed on the center of the MED probe. The slice was positioned to cover the 8×8 array. After positioning the slice, the MED probe was immediately placed in a box filled with 95% O2 and 5% CO2.
During recording, the slices were continuously perfused with a solution of the following composition: ACSF (in mM): 124 NaCl, 26 NaHCO3, 10 glucose, 3 KCl, 1.25 kH2PO4, 2 CaCl2, 1 MgSO4. All compounds were bath applied at known concentrations and were prepared daily from frozen aliquots. Compounds were purchased from Sigma. Ampakines (CX516, CX546, CX554) were made fresh everyday, and used at concentrations: CX516, 250 μM; CX546, 250 μM; and CX554, 30 μM.
Baseline, application, and recovery time was usually at 10, 20, and 30 min respectively.
During electrophysiological recording, the slices on the MED probe were placed in a small CO2 incubator (Asahi Lifescience; model 4020) at 32° C. The slices were placed on an interface, and a moisturized with a 95% O2 and 5% CO2 gas mixture.
Evoked field potentials at all 64 sites (minus stimulation sites) were recorded simultaneously with the multichannel recording system (Panasonic: MED64 system) at a 20 kHz sampling rate. In the case of the evoked response, one of the planar microelectrodes out of the 64 available was used for the stimulating cathode. Bipolar constant-current pulses (10-50 μA; 0.1 ms) were produced by the data acquisition software via the isolator. The stimulating microelectrode was selected by the 64-switch box.
All assays employ paired-pulse stimulation at various rat hippocampal sites to elicit evoked responses. The resulting field EPSP recordings were analyzed using Matlab software (The MathWorks, Inc.) by computing several response measures such as amplitude, halfwidth, and negative area, which apply to both the first and second evoked reponses. Amplitude was defined as the maximum depolarization magnitude relative to the average baseline reading prior to the first stimulation pulse. Halfwidth was defined as the duration of the depolarization phase of the evoked response at half its maximum amplitude value. Negative area was obtained by taking the magnitude of the integral of the evoked response curve over all segments with the same polarity as the depolarization phase. This integral spans a time window of 25 msec beginning one msec after the stimulation pulse.
Amplitudes and halfwidths for both first and second elicited responses were computed for assays SC50, SC200, and CA3-1—50. For DG50 only first and second amplitudes were computed. Negative areas for first and second responses were computed for SC50, SC200, CA3-1—50, and MF50.
All response paramters were utilized to quantify candidate sample composition effects on the hippocampus. For a given response parameter, the candidate sample composition effect was defined as the percent change of the average measure during the last five minutes of the wash-in phase with respect to the average measure of the last five minutes of the preceding, pre-wash-in control phase. […]

[2] = tested on: glutamate receptor-mediated evoked excitatory synaptic transmission, hippocampal slice dentate gyrus; experiment: Paired-pulse evoked fEPSP in dentate gyrus (assay DG50), MED64
Procedure: as §1, with “CO2. […]” for “CO2.”
(§2) Evoked field potentials at all 64 sites (minus stimulation sites) were recorded simultaneously with the multichannel recording system (Panasonic: MED64 system) at a 20 kHz sampling rate. […]
(§3) All assays employ paired-pulse stimulation at various rat hippocampal sites to elicit evoked responses. The resulting field EPSP recordings were analyzed using Matlab software (The MathWorks, Inc.) by computing several response measures such as amplitude, halfwidth, and negative area, which apply to both the first and second evoked reponses. Amplitude was defined as the maximum depolarization magnitude relative to the average baseline reading prior to the first stimulation pulse. […]
The polarity of the evoked responses for assay DG50 was reversed before analysis because of the inverted voltage values recorded by the DG50 electrode. Assays SC50, SC200, MF50, and CA3-1—50, however, were analyzed without such a reversal. […]
(§4) All response paramters were utilized to quantify candidate sample composition effects on the hippocampus. […]

[3] = tested on: glutamate receptor-mediated evoked excitatory synaptic transmission, hippocampal slice mossy fibers; experiment: Paired-pulse evoked fEPSP, mossy fibers (assay MF50), MED64; settings: 250 μM; 50 ms inter-pulse delay
Procedure: A 17-24 day old Sprague Dawley rat was decapitated after anesthesia with halothane (2-bromo-2-chloro-1,1,1-trifluoroethane; Sigma; B4388), and the whole brain was removed. The brain was immediately soaked for ˜2 min in ice-cold, oxygenated preparation buffer of the following composition (in mM): 124 NaCl, 26 NaHCO3, 10 glucose, 3 KCl, 1.25 NaH2PO4, 2 CaCl2, and 2 MgSO4. Appropriate portions of the brain were trimmed and placed on the ice-cold stage of a vibrating tissue slicer (Leica, Nussloch, Germany; VT-1000S). The stage was immediately filled with both oxygenated and frozen preparation buffers. The thickness of each tissue slice was 350 μm. […]
as §2, §3

[4] = tested on: hippocampal slice regions (CA1, DG, MF); experiment: Comparison between regions of the slice, area under the curve for all 4 assays (FIG. 9); settings: prediction drawn from the results of FIG. 9
Procedure: All assays employ paired-pulse stimulation at various rat hippocampal sites to elicit evoked responses. The resulting field EPSP recordings were analyzed using Matlab software (The MathWorks, Inc.) by computing several response measures such as amplitude, halfwidth, and negative area, which apply to both the first and second evoked reponses. Amplitude was defined as the maximum depolarization magnitude relative to the average baseline reading prior to the first stimulation pulse. Halfwidth was defined as the duration of the depolarization phase of the evoked response at half its maximum amplitude value. Negative area was obtained by taking the magnitude of the integral of the evoked response curve over all segments with the same polarity as the depolarization phase. This integral spans a time window of 25 msec beginning one msec after the stimulation pulse. […]
as §4
To compare the response of tissue slices to candidate sample compositions between different regions of the slice, the area under the curve for all 4 assays was calculated.
To compare the effect of compounds in candidate sample compositions between different regions of a tissue slice, the area under the curve for all 4 assays was calculated. […]

[5] = CX546 250 μM, individual slice files, normalized change over control
[6] = CX546 250 μM, n = 5, normalized change over control

O=C(c1ccc2c(c1)OCCO2)N1CCCCC1 [CX546]
half-width of both responses in CA1 ([1]; 250 μM, 50 ms or 200 ms delay between stimulation pulses): increase in the half-width | change of the first response (amplitude) ([1]; 250 μM, 50 ms protocol): no change | decrease in the second response amplitude ([1]; 250 μM, 50 ms protocol): 9±3% | effect on amplitude of both responses ([1]; 250 μM, 200 ms protocol): no effect | increase of the halfwidth of first and second fEPSP ([1]; 250 μM, 200 ms protocol, summary of Table 2): 14-15% | kind of modulation of the responses in CA1 (halfwidth vs amplitude) ([1]; CX516, CX546 250 μM, CX554 30 μM): selectively increases halfwidth but not the amplitude | SC 50 ms Amplitude fEPSP 1st [1, 5]: 0.063 and 0.087 and 0.012 and −0.022 and 0.025 | SC 50 ms Amplitude fEPSP 2nd [1, 5]: 0.022 and −0.124 (2×) and −0.130 and −0.088 | SC 50 ms Widths fEPSP 1st [1, 5]: 0.096 and 0.155 and 0.114 and 0.202 and 0.102 | SC 50 ms Widths fEPSP 2nd [1, 5]: 0.067 and 0.026 and −0.025 and 0.065 and 0.031 | SC 200 ms Amplitude fEPSP 1st [1, 5]: 0.064 and 0.083 and 0.028 and −0.007 and 0.021 | SC 200 ms Amplitude fEPSP 2nd [1, 5]: 0.047 and 0.061 and 0.011 and −0.015 and 0.013 | SC 200 ms Widths fEPSP 1st [1, 5]: 0.089 and 0.166 and 0.141 and 0.252 and 0.105 | SC 200 ms Widths fEPSP 2nd [1, 5]: 0.102 and 0.207 and 0.180 and 0.189 and 0.132 | SC 50 ms Amplitude fEPSP 1st, Change over Control (%) ([1]; CX546 250 μM, n = 5): 3.296% | SC 50 ms Amplitude fEPSP 2nd, Change over Control (%) ([1]; CX546 250 μM, n = 5): −8.884% | SC 50 ms Widths fEPSP 1st, Change over Control (%) ([1]; CX546 250 μM, n = 5): 13.386% | SC 50 ms Widths fEPSP 2nd, Change over Control (%) ([1]; CX546 250 μM, n = 5): 3.276% | SC 200 ms Amplitude fEPSP 1st, Change over Control (%) ([1]; CX546 250 μM, n = 5): 3.764% | SC 200 ms Amplitude fEPSP 2nd, Change over Control (%) ([1]; CX546 250 μM, n = 5): 2.310% | SC 200 ms Widths fEPSP 1st, Change over Control (%) ([1]; CX546 250 μM, n = 5): 15.064% | SC 200 ms Widths fEPSP 2nd, Change over Control (%) ([1]; CX546 250 μM, n = 5): 16.206% | SC 50 ms Amplitude fEPSP 1st, Mean [1, 6]: 0.033 | SC 50 ms Amplitude fEPSP 2nd, Mean [1, 6]: −0.089 | SC 50 ms Widths fEPSP 1st, Mean [1, 6]: 0.134 | SC 50 ms Widths fEPSP 2nd, Mean [1, 6]: 0.033 | SC 200 ms Amplitude fEPSP 1st, Mean [1, 6]: 0.038 | SC 200 ms Amplitude fEPSP 2nd, Mean [1, 6]: 0.023 | SC 200 ms Widths fEPSP 1st, Mean [1, 6]: 0.151 | SC 200 ms Widths fEPSP 2nd, Mean [1, 6]: 0.162 | area of the second response (fEPSP) in CA1 ([1]; area under the curve, representative slices, FIG. 9): decreased | responses recorded in dentate gyrus (amplitude) ([2]; 250 μM, 50 ms inter-pulse delay): decrease in the amplitude | second response (fEPSP) in DG ([2]; area under the curve, representative slices, FIG. 9, CX546 250 μM, CX554 30 μM per Example 3): not noticeably altered | mossy fibers' response (area) [3]: increase | degree to which ampakines enhance activation of interneurons (rank order) [4]: CX554>CX546>CX516
